pIC50: −log10 of the molar value.

For orientation: pIC50 means the IC50 on a negative log10 scale, so that one unit is a factor of ten. Read a high pIC50 as a low IC50.

The target in the test is T1, CXCR7 (Homo sapiens, UniProt P25106).
T1 construct: expressed in transfected cells; host or cells: CHO cells (CHO-CXCR7), transgenes maintained with Hygromycin B and G418
T1 sequence (P25106 whole entry): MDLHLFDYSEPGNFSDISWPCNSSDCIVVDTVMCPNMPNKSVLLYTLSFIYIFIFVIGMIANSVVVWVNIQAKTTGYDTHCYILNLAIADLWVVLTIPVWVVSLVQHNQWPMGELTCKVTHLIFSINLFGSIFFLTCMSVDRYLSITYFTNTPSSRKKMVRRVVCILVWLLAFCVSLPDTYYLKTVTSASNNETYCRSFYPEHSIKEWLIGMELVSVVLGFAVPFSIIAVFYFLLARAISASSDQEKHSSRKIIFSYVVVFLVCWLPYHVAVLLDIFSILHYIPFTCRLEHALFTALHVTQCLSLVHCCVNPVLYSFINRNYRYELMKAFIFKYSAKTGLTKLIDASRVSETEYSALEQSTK
In words: CXCR7 β-arrestin recruitment assay in CHO-CXCR7 cells (ProLink/EA β-galactosidase complementation), induced by human SDF-1a. The format is cell-based. The note with it: assay buffer, SDF-1a at EC50 concentration. The method, boiled down: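 SDF-1α-induced β-arrestin recruitment was measured by enzyme-fragment complementation (ProLink-CXCR7 with β-arrestin-EA) in stable CHO cells. Agonist was dosed at its EC50, determined the same day, alongside serially diluted compound for 1.5 h at 37 °C. Fluorogenic galactoside substrate (0.4 mM, 30 min) was read at 360/465 nm, with IC50 from 3-parameter nonlinear regression.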
In general terms: Arrestin recruitment assays detect the binding of arrestin to an activated receptor.
As for `Cc1cc(C2CC2)cc(C(C)(C)NC(=O)CC2(NC(=O)c3nnc(-c4ccc(F)cc4F)s3)CN([C@H]3CC[C@](C)(O)CC3)C2)n1` [Example 1.350], the pIC50 was 7.00 to 8.30. `CC(C)(NC(=O)CC1(NC(=O)c2cc(-c3ccc(F)cc3F)on2)CN([C@H]2CC[C@](C)(O)CC2)C1)c1cccc(C(F)(F)F)c1` [Example 1.199]: the pIC50 was 7.00 to 8.30.

`Cc1cc(Cl)cc(C(C)(C)NC(=O)CC2(NC(=O)c3cc(-c4ccc(F)cc4F)on3)CN(C3CCOC(C)(C)C3)C2)n1` (centres unmarked) [Example 1.358]: the pIC50 is over 8.30.

Consider `CC(C)(NC(=O)CC1(NC(=O)c2cc(-c3ccc(F)cc3F)on2)CN([C@H]2CC[C@@](C)(O)CC2)C1)c1ccnc(C2CC2)c1` [Example 1.146], for which the pIC50 is 7.00 to 8.30. Compound `CC(C)(NC(=O)CC1(NC(=O)c2cc(-c3ccc(F)cc3F)on2)CN([C@H]2CC[C@](C)(O)CC2)C1)c1cccc(OC(F)(F)F)c1` [Example 1.198] showed a negative logarithm of the IC50 (pIC50) of 7.00 to 8.30. The compound `CC(C)(NC(=O)CC1(NC(=O)c2cc(-c3ccc(F)cc3F)on2)CN(C2CC2)C1)c1ccccn1` [Example 1.313] showed a pIC50 of 7.00 to 8.30. `CCc1cccc(C(C)(C)NC(=O)CC2(NC(=O)c3cc(-c4ccc(F)cc4F)on3)CN([C@H]3CC[C@](C)(O)CC3)C2)c1` [Example 1.209] showed a pIC50 of 7.00 to 8.30. The compound `CC(C)(O)CN1CC(CC(=O)NC(C)(C)c2cccc(F)c2)(NC(=O)c2cc(-c3ccc(F)cc3F)on2)C1` [Example 1.251] had a pIC50 of 7.00 to 8.30.

With `Cc1cc(C(C)(C)NC(=O)CC2(NC(=O)c3cc(-c4ccc(F)cc4F)on3)CN(CC3COC3)C2)ccn1` [Example 1.136], the pIC50 is 6.00 to 7.00. Consider `COc1cc(Cl)cc(C(C)(C)NC(=O)CC2(NC(=O)c3cc(-c4ccc(F)cc4F)on3)CN(CC(C)(C)O)C2)c1` [Example 1.154], for which the pIC50 is over 8.30. The compound `CC(C)CN1CC(CC(=O)NC(C)(C)c2ccccn2)(NC(=O)c2cc(-c3ccc(F)cc3F)on2)C1` [Example 1.129] showed a pIC50 of 7.00 to 8.30. As for `Cc1ccccc1C(C)(C)NC(=O)CC1(NC(=O)c2cc(-c3ccc(F)cc3F)on2)CN([C@H]2CC[C@](C)(O)CC2)C1` [Example 1.215], the figure is over 8.30; as for `CC(C)(NC(=O)CC1(NC(=O)c2cc(-c3ccc(F)cc3F)on2)CN([C@H]2CC[C@](C)(O)CC2)C1)c1cccc(F)c1` [Example 1.289], over 8.30; as for `CC(C)(NC(=O)CC1(NC(=O)c2csc(-c3ccc(F)cc3F)n2)CN([C@H]2CC[C@@](C)(O)CC2)C1)c1cccc(Cl)c1` [Example 1.050], 4.70 to 6.00. In turn, `Cc1cccc(C(C)(C)NC(=O)CC2(NC(=O)c3cc(-c4ccc(F)cc4F)on3)CN([C@H]3CC[C@@](C)(O)CC3)C2)c1` [Example 1.214] gave a negative logarithm of the IC50 (pIC50) of over 8.30. As for `O=C(CC1(NC(=O)c2cc(-c3ccc(F)cc3F)on2)CN(C2CCCCC2)C1)N[C@H](CO)c1ccccc1` [Example 1.316], the pIC50 was 7.00 to 8.30. In turn, `Cc1cc(C(C)(C)NC(=O)CC2(NC(=O)c3cc(-c4ccc(F)cc4F)on3)CN(C3CCC(C)(O)CC3)C2)cc(C)n1` (centres unmarked) [Example 1.111] had a pIC50 of 7.00 to 8.30.

These data come from US12448373B2, “Azetidinyl-acetamides as CXCR7 inhibitors” (CHEMOCENTRYX, INC., priority 2021, dated 2025).
